Measured values as given in patent publication US10086001B2, “Composition for the treatment of cystic fibrosis” (SciPharm SàRL, priority 2009, dated 2018).

Experiments:
IB3-1 cells = assay: Accumulation of [3H]cAMP in IB3-1 cells; type: cell-based, human; conditions: for accumulation of cAMP: bronchoepithelial IB3-1 cells
Description: IB3-1 cells were plated on 6 well-plates (0.2*10^6 cells/well) in complete growth medium (LHC-8+5% FCS). The following day, the adenine nucleotide pool was metabolically labelled by incubation with [3H]adenine (1 μCi/well) in Dulbecco's Modified Eagle Medium (DMEM) containing adenosine deaminase (1 unit/ml) for 4 h. Cyclc AMP formation was stimulated by 20 μM forskolin or the PGI2-analogue treprostinil (Remodulin®). The assay was performed in triplicates. The formation of [^3H]cAMP was determined by sequential chromatography on Dowex 50WX-4 and neutral alumina columns followed by liquid scintillation counting of the eluate.

[1] = test system: human GFP-tagged wild type CFTR; assay: Whole cell patch clamp, activation of Cl-current in IB3-1 cells transiently expressing GFP-tagged wild type CFTR; type: cell-based
Description: The whole cell patch clamp technique was used for current recordings performed at 22±1.5° C. using an Axoclamp 200B patch clamp amplifier (Axon Instruments). Pipettes had resistances between 1 and 2 MΩ when filled with the recording pipette solution (composition: 110 mM CsCl, 5 mM EGTA, 2 mM MgCl2, 1 mM K2.ATP, 10 mM Hepes, pH adjusted to 7.2 with CsOH). Voltage-clamp protocols and data acquisition were performed with pclamp 6.0 software (Axon Instruments). Data were low-pass filtered at 2 kHz (−3 dB) and digitized at 10-20 kHz. Cells were continuously superfused with external solution (composition: 145 mM NaCl, 4.5 mM KCl, 2 mM CaCl2, 1 mM MgCl2, 5 mM glucose, 10 mM Hepes, pH adjusted to 7.4 with NaOH). When indicated, the external solution contained Treprostinil (10 μM) or forskolin (5 μM), switching between solutions was achieved by electronically controlled pressure valves.
I3B-1 cells were grown on dishes (Nunc, 3.5 cm diameter) covered with fibronectin (10 μg/mL) rat collagen 1 (30 μg/mL) and BSA 10 μg/mL) in LHC-8 medium (Gibco) containing 5% fetal calf serum (FCS). Cells were transiently transfected with a plasmid driving the expression of human GFP-tagged wild type CFTR by using Lipofectamine Plus® (Invitrogen) according to the instructions of the manufacturer.
Representative current amplitudes recorded in the whole cell patch clamp configuration at +60 mV. A transiently transfected I3B-1 cell expressing GFP-tagged wild type CFTR was selected under fluorescent light and clamped to a holding potential at −40 mV. Depolarization was induced by a voltage step to +60 mV for 50 ms and the current amplitude was recorded. Wash-in of Treprostinil (10 μM final concentration, TP) was initiated at the time point 50 s and terminated at 125 s. Forskolin was washed in at 275 s and was removed at 375 s.

Structure (SMILES): O=C1CN2Cc3c(ccc(Cl)c3Cl)N=C2N1 [Anagrelide]
- accumulation of cAMP (IB3-1 cells): did not induce any accumulation cAMP

Structure (SMILES): CCCCC[C@H](O)CC[C@@H]1[C@H]2Cc3cccc(OCC(=O)[O-])c3C[C@H]2C[C@H]1O.[Na+] [Treprostinil, (1R,2R,3aS,9aS)-[[2,3,3a,4,9,9a-hexahydro-2-hydroxy-1-[(3S)-3-hydroxyoctyl]-1H-benz[f]inden-5-yl]oxy]acetic acid monosodium salt]
- activation of the current induced by a depolarization from −40 mV holding potential to +60 mV ([1]; 10 μM Treprostinil, IB3-1 cell expressing CFTR-wt, FIG. 2): robust activation of the current
- time for current to decay to basal after washout ([1]; 10 μM Treprostinil, whole cell patch clamp at +60 mV): ~100 s
- delay of response (maximum effect after wash-in, hysteresis in turn-off) ([1]; Treprostinil 10 μM or forskolin 5 μM, whole cell patch clamp): only observed several s after wash-in
- EC50 (IB3-1 cells; Homo sapiens, IB3-1 cells, [3H]adenine labelling, FIG. 1, read-out: Half-maximum stimulation of cAMP accumulation): 300 to 1000 nM
- accumulation of cAMP (IB3-1 cells): concentration-dependent accumulation of cAMP
